According to patent US20230219965A1 (KSQ Therapeutics, Inc., priority 2020, published 2023):
pIC50: −log10 of the molar value. Read-outs that look alike come from different tables or passages of the source.

What was measured:
[1] = ADME solubility determination in PBS at pH 2.0 and pH 7.4; type: physicochemical; details: phosphate buffered saline, 25 °C, thermodynamic from solid
How it was run: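 Dried 10 mM DMSO stock residues taken up in PBS pH 7.4 or pH 2.0, shaken 24 h at 25° C. After centrifugation, supernatant quantified by LC-MS/MS against a standard of known concentration, with a dilution factor applied.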

[2] = Liver microsomal metabolic stability, rat liver microsomes (RLM); details: rat, liver microsomes, t1/2 (min) in RLM, 1 μM compound, 1 mg/mL microsomes, NADPH
[3] = Liver microsomal metabolic stability, human liver microsomes (HLM); details: human, liver microsomes
[4] = target: USP1/UAF1 enzyme (Homo sapiens, UniProt O94782); assay: USP1/UAF1 deubiquitination assay (ubiquitin-rhodamine 110 substrate); type: biochemical; details: read-out: USP1 IC50 (Ub-Rho)
How it was run: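 0.05 nM USP1/UAF1 was preincubated 10 min with compounds (dose response from 10 μM) in 50 mM Tris-HCl pH 7.8, 0.5 mM EDTA, 0.01% BSA, 1 mM DTT, 0.01% Tween-20. 150 nM ubiquitin-rhodamine 110 started the reaction, read kinetically 30 min at Ex480/Em540; IC50 by four-parameter fit versus no-enzyme and DMSO controls.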

[5] = tested on: Ub-PCNA levels in the nucleus of ES2 cells (USP1 activity); assay: ES2 Ub-PCNA immunofluorescence (IF) assay; type: cell-based; details: Homo sapiens, ES-2; ES2 cells, 3 hours, Ub-PCNA immunofluorescence; read-out: USP1 IC50 (Ub-PCNA)
How it was run: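 Cells plated overnight, then compound-treated for 3 h at 37° C (0.3% DMSO final), methanol-fixed and stained with anti-Ub-PCNA plus DAPI. Per-nucleus Ub-PCNA intensity imaged; cells above the 95% cutoff of untreated wells counted as positive, and percent positive cells used to derive AC50.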

[6] = pH 2, aqueous buffer, PBS pH 2.0, 25° C., read-out: Solubility at pH 2.0
[7] = pH 7.4, aqueous buffer, PBS pH 7.4, 25° C., read-out: Solubility at pH 7.4

Chain of USP1/UAF1 enzyme (O94782 whole entry): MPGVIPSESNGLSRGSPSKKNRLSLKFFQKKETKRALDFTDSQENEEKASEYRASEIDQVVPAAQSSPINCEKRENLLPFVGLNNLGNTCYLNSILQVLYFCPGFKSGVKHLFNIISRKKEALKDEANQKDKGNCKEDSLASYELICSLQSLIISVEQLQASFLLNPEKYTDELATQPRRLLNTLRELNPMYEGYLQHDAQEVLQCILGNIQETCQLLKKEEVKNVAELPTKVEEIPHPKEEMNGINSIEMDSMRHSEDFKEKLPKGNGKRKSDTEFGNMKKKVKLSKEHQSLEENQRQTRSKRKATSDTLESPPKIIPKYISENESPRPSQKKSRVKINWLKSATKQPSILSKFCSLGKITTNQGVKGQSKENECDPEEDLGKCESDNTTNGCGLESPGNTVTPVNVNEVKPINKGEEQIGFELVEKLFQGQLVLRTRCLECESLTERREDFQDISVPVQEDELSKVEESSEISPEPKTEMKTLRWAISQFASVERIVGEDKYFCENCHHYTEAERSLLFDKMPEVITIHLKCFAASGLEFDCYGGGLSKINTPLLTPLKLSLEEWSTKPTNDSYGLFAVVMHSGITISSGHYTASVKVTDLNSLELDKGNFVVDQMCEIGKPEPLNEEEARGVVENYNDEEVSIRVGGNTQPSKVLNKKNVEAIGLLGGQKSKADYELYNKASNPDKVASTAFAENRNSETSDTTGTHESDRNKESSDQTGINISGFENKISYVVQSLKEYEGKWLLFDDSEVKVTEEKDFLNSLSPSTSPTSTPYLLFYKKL
Chain of USP1/UAF1 enzyme (Q8TAF3 whole entry partner): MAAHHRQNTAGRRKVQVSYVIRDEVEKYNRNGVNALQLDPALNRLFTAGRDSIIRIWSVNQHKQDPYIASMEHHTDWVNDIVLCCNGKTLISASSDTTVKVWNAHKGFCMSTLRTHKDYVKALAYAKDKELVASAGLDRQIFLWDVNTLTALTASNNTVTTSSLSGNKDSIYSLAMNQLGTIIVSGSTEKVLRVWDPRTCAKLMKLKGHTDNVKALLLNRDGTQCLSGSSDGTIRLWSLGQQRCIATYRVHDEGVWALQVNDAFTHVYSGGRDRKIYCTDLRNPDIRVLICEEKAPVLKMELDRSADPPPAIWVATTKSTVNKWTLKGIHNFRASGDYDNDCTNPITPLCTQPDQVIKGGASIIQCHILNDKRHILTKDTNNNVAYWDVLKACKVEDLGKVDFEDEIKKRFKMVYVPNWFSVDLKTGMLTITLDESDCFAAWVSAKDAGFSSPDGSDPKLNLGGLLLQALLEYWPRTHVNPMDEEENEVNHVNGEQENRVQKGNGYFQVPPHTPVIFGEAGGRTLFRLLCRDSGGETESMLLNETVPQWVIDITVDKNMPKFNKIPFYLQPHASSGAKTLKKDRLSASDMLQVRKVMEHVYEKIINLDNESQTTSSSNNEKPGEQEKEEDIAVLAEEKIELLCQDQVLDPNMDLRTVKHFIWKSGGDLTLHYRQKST

Row | Compound | solubility at 24 h [1, 6] [µM] | solubility at 24 h [1, 7] [µM] | half-life at 1 μM [2] [min] | half-life at 1 μM [3] [min] | pIC50 [4] | pIC50 [5]
1 | CCn1cc(C(F)(F)F)nc1-c1ccc(CN2C(=O)C(C)Cn3nc(-c4c(Cl)cnn4C(C)C)nc32)cc1F (stereo not drawn) [Example 350, 2-(4-chloro-1-isopropyl-1H-pyrazol-5-yl)-4-(4-(1-ethyl-4-(trifluoromethyl)-1H-imidazol-2-yl)-3-fluorobenzyl)-6-methyl-6,7-dihydro-[1,2,4]triazolo[1,5-a]pyrimidin-5(4H)-one] | < 10 | < 10 | > 25 | > 25 | > 7.00 | > 7.00
2 | CCn1cc(C(F)(F)F)nc1-c1ccc(Cn2c(=O)ccn3nc(-c4c(OC)ncnc4C4CC4)nc23)cc1 [Example 337, 2-(4-cyclopropyl-6-methoxypyrimidin-5-yl)-4-(4-(1-ethyl-4-(trifluoromethyl)-1H-imidazol-2-yl)benzyl)-[1,2,4]triazolo[1,5-α]pyrimidin-5(4H)-one] | ≥ 10 | < 10 | > 25 | > 25 | > 7.00 | > 7.00
3 | CC(C)Oc1cccnc1-c1ccc(CN2C(=O)CCn3nc(-c4c(Cl)cnn4C(C)C)nc32)cc1 [Example 304] | ≥ 10 | < 10 | < 25 | < 25 | > 7.00 | 6.30 to 7.00
4 | CC(C)n1cc(C(F)(F)F)nc1-c1ccc([C@H](C)N2C(=O)CCn3nc(-c4c(Cl)cnn4C(C)C)nc32)cc1 [Example 177] | < 10 | < 10 | > 25 | < 25 | > 7.00 | > 7.00
5 | COc1ncnc(C2CC2)c1-c1cc2n(n1)CCC(=O)N2Cc1ccc(-n2nc(C(F)(F)F)cc2C)c(F)c1 [Example 103] | < 10 | < 10 | > 25 | > 25 | > 7.00 | 6.30 to 7.00
6 | COc1ncnc(C2CC2)c1-c1nc2n(n1)CCC(=O)N2[C@@H](C)c1ccc(-c2nc(C(F)(F)F)cn2C2CC2)cc1 [Example 200] | ≥ 10 | ≥ 10 | > 25 | > 25 | 6.30 to 7.00 | > 7.00
7 | COc1ncnc(C2CC2)c1-c1cc2n(n1)CCC(=O)N2[C@H](C)c1ccc(-c2nc(C(F)(F)F)cn2C(C)C)cc1 [Example 123] | ≥ 10 | < 10 | > 25 | > 25 | > 7.00 | > 7.00
8 | COc1ncnc(C2CC2)c1-c1nc2n(Cc3ccc(-c4nc(C(F)(F)F)cn4C(C)C)c(F)c3OC)c(=O)ccn2n1 [Example 346, 2-(4-cyclopropyl-6-methoxypyrimidin-5-yl)-4-(3-fluoro-4-(1-isopropyl-4-(trifluoromethyl)-1H-imidazol-2-yl)-2-methoxybenzyl)-[1,2,4]triazolo[1,5-a]pyrimidin-5(4H)-one] | < 10 | < 10 | > 25 | > 25 | > 7.00 | > 7.00
9 | CC(C)n1ncc(Cl)c1-c1cc2n(n1)CCC(=O)N2Cc1ccc(-c2nc(C(F)(F)F)cn2C)c(F)c1 [Example 16, 2-(4-chloro-1-isopropyl-1H-pyrazol-5-yl)-4-(3-fluoro-4-(1-methyl-4-(trifluoromethyl)-1H-imidazol-2-yl)benzyl)-6,7-dihydropyrazolo[1,5-a]pyrimidin-5(4H)-one] | < 10 | < 10 | < 25 | > 25 | > 7.00 | > 7.00
10 | COc1ncnc(C2CCC2)c1-c1cc2n(n1)CCC(=O)N2Cc1ccc(-c2nc(C(F)(F)F)cn2C)c(F)c1 [Example 22] | ≥ 10 | < 10 | < 25 | < 25 | > 7.00 | > 7.00
11 | CC(C)n1cc(C(F)(F)F)nc1-c1ccc(CN2C(=O)CCn3nc(-c4c(Cl)cnn4C(C)C)nc32)cc1 [Example 41] | < 10 | < 10 | > 25 | > 25 | > 7.00 | > 7.00
12 | Cc1cnn(C(C)C)c1-c1cc2n(n1)CCC(=O)N2Cc1ccc(-c2nc(C(F)(F)F)cn2C)cc1 [Example 6, 2-(1-isopropyl-4-methyl-1H-pyrazol-5-yl)-4-(4-(1-methyl-4-(trifluoromethyl)-1H-imidazol-2-yl)benzyl)-6,7-dihydropyrazolo[1,5-a]pyrimidin-5(4H)-one] | ≥ 10 | ≥ 10 | < 25 | < 25 | > 7.00 | < 6.30
13 | CCn1cc(C(F)(F)F)nc1-c1ccc([C@H](C)N2C(=O)CCn3nc(-c4c(Cl)cnn4C(C)C)nc32)cc1 [Example 193] | < 10 | < 10 | < 25 | < 25 | > 7.00 | > 7.00
14 | CCn1cc(C(F)(F)F)nc1-c1ccc(N[C@H]2CCCn3nc(-c4c(Cl)cnn4C(C)C)cc32)cc1 (single isomer, unassigned) [Example 239] | < 10 | < 10 | > 25 | > 25 | > 7.00 | > 7.00
15 | CCn1cc(C(F)(F)F)nc1-c1ccc([C@@H](C)N2C(=O)CCn3nc(-c4c(Cl)cnn4C(C)C)nc32)cc1F [Example 182] | < 10 | < 10 | < 25 | < 25 | > 7.00 | > 7.00
16 | CCn1cc(C(F)(F)F)nc1-c1ccc(CN2CC(N)Cn3nc(-c4c(Cl)cnn4C(C)C)cc32)cc1F (stereo not drawn) [Example 353, 2-(4-chloro-1-isopropyl-1H-pyrazol-5-yl)-4-(4-(1-ethyl-4-(trifluoromethyl)-1H-imidazol-2-yl)-3-fluorobenzyl)-4,5,6,7-tetrahydropyrazolo[1,5-α]pyrimidin-6-amine] | ≥ 10 | < 10 | < 25 | < 25 | > 7.00 | > 7.00
17 | CCn1cc(C(F)(F)F)nc1-c1ccc([C@H](C)N2C(=O)CCn3nc(-c4c(OC)ncnc4C4CC4)cc32)cc1F [Example 142] | ≥ 10 | < 10 | < 25 | > 25 | 6.30 to 7.00 | 6.30 to 7.00
18 | COc1ccc(C(F)(F)F)nc1-c1ccc(CN2C(=O)CCn3nc(-c4c(Cl)cnn4C(C)C)cc32)cc1Cl [Example 294] | < 10 | < 10 | < 25 | > 25 | > 7.00 | > 7.00
19 | CCn1cc(C(F)(F)F)nc1-c1c(F)cc(CN2C(=O)CCn3nc(-c4c(OC)ncnc4C4CC4)nc32)cc1OC [Example 176] | ≥ 10 | ≥ 10 | > 25 | > 25 | > 7.00 | > 7.00
20 | COc1ncnc(C2CC2)c1-c1nc2n(n1)CCC(=O)N2[C@H](C)c1ccc(-c2nc(C(F)(F)F)cn2C(C)C)c(F)c1 [Example 174] | ≥ 10 | ≥ 10 | > 25 | > 25 | > 7.00 | > 7.00
21 | CCn1cc(C(F)(F)F)nc1-c1ccc([C@@H](C)N2C(=O)CCn3nc(-c4c(Cl)cnn4C(C)C)nc32)cc1 [Example 194] | < 10 | < 10 | < 25 | < 25 | > 7.00 | > 7.00
22 | COc1cc(C)nn1-c1ccc(CN2C(=O)CCn3nc(-c4c(Cl)cnn4C(C)C)cc32)cc1 [Example 135] | < 10 | < 10 | < 25 | < 25 | > 7.00 | > 7.00
23 | COc1ncnc(C2CC2)c1-c1nn2c(c1Cl)N(Cc1ccc(-c3nc(C(F)(F)F)cn3C)cc1)C(=O)CC2 [Example 33, 3-chloro-2-(4-cyclopropyl-6-methoxypyrimidin-5-yl)-4-(4-(1-methyl-4-(trifluoromethyl)-1H-imidazol-2-yl)benzyl)-6,7-dihydropyrazolo[1,5-α]pyrimidin-5(4H)-one] | < 10 | < 10 | > 25 | > 25 | > 7.00 | > 7.00
24 | Cc1cnn(C(C)C)c1-c1cc2n(n1)CCCN2Cc1ccc(-c2nc(C(F)(F)F)nn2C)cc1 [Example 53] | < 10 | < 10 | < 25 | < 25 | > 7.00 | 6.30 to 7.00
